Experimental data: ChEMBL document CHEMBL1811762, “Gusanlungionosides A-D, potential tyrosinase inhibitors from Arcangelisia gusanlung” (J Nat Prod, 2011)
Activity calls are given as the source filed them. The rule behind the calls is not given here.

Columns and labels:
B16-F10 [1] = assay: Cytotoxicity against mouse B16F10 cells up to 200 ug/mL; assay type: cell-based
Tyrosinase = biological target: T1, Tyrosinase (Agaricus bisporus, UniProt O42713)
T1 sequence (O42713 whole entry): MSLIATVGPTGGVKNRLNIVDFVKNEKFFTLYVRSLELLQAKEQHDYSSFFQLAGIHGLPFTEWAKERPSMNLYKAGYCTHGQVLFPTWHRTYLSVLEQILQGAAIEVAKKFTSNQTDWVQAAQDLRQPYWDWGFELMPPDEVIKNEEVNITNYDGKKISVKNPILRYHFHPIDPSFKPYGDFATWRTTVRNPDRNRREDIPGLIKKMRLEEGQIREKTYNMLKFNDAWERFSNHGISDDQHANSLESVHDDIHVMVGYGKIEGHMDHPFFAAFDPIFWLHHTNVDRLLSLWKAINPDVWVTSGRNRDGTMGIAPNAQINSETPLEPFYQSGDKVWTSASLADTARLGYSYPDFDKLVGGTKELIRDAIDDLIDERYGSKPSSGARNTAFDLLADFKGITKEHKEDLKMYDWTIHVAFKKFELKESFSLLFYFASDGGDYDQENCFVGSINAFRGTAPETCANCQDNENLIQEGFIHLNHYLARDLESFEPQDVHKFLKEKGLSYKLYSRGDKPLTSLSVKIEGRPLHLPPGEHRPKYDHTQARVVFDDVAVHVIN
Description: Inhibition of mushroom tyrosinase using L-DOPA after 10 mins by ELISA reader

B16-F10 [2] = assay: Decrease in tyrosinase mRNA expression in alpha-MSH-stimulated mouse B16F10 cells after 48 hrs by RT-PCR analysis; assay type: functional, cell-based
B16-F10 [3] = assay: Antimelanogenic activity in alpha-MSH-stimulated mouse B16F10 cells pretreated for 30 mins before alpha-MSH challenge measured after 48 hrs by ELISA reader; assay type: functional, cell-based

SMILES	IC50 (Tyrosinase) [mM]	Activity (B16-F10 [1])	Activity (B16-F10 [2])	Activity (B16-F10 [3])
CC1=CC(=O)CC(C)(C)[C@@H]1CC[C@@H](C)O[C@@H]1O[C@H](CO)[C@@H](O)[C@H](O)[C@H]1O[C@@H]1O[C@@H](C)[C@H](O)[C@@H](O)[C@H]1O [GUSANLUNGIONOSIDE C]	0.2	Non-toxic	Active	Active
COc1cc([C@@H]2c3c(cc(OC)c(O)c3OC)C[C@H](CO)[C@@H]2CO[C@@H]2O[C@H](CO)[C@@H](O)[C@H](O)[C@H]2O)cc(OC)c1O	> 1	Non-toxic	–	Active
COc1cc2c(cc1OC)C(=O)N(C)CC2	> 1	Non-toxic	–	Active
COc1cc([C@@H]2c3c(cc(OC)c(O)c3OC)C[C@@H](CO)[C@H]2CO[C@@H]2O[C@H](CO)[C@@H](O)[C@H](O)[C@H]2O)cc(OC)c1O	> 1	Non-toxic	–	Active
CC1=CC(=O)CC(C)(C)[C@H]1/C=C/[C@@H](C)O[C@@H]1O[C@H](CO)[C@@H](O)[C@H](O)[C@H]1O[C@@H]1O[C@@H](C)[C@H](O)[C@@H](O)[C@H]1O [GUSANLUNGIONOSIDE B]	0.16	Non-toxic	Active	Active
CC1=CC(=O)CC(C)(C)[C@@H]1/C=C/[C@@H](C)O[C@@H]1O[C@H](CO)[C@@H](O)[C@H](O)[C@H]1O[C@@H]1O[C@@H](C)[C@H](O)[C@@H](O)[C@H]1O [GUSANLUNGIONOSIDE A]	0.15	Non-toxic	Active	Active
CC1=CC(=O)CC(C)(C)[C@H]1CC[C@@H](C)O[C@@H]1O[C@H](CO)[C@@H](O)[C@H](O)[C@H]1O[C@@H]1O[C@@H](C)[C@H](O)[C@@H](O)[C@H]1O [GUSANLUNGIONOSIDE D]	0.19	Non-toxic	Active	Active

Second part, led by results:

IC50 (Tyrosinase) [mM]	SMILES	Activity (B16-F10 [1])	Activity (B16-F10 [2])	Activity (B16-F10 [3])
> 1	COc1cc2c(cc1O)C(=O)N(C)CC2 [THALIFOLINE]	Non-toxic	–	Active
> 1	OCc1ccc(O)cc1 [PARAHYDROXYBENZYL ALCOHOL]	Non-toxic	–	Active
> 1	COc1cc([C@H]2c3c(cc(OC)c(O)c3OC)C[C@@H](CO)[C@H]2CO[C@@H]2O[C@H](CO)[C@@H](O)[C@H](O)[C@H]2O)cc(OC)c1O	Non-toxic	–	Active
> 1	O=C(/C=C/c1ccc(O)cc1)NCCc1ccc(O)cc1 [N-P-COUMAROYL TYRAMINE]	Non-toxic	–	Active
> 1	COc1cc([C@H]2OC[C@H]3[C@@H]2CO[C@@H]3c2cc(OC)c(O)c(OC)c2)cc(OC)c1O [SYRINGARESINOL]	Non-toxic	–	Active
> 1	COc1cc(/C=C/C(=O)NCCc2ccc(O)c(OC)c2)ccc1O	Non-toxic	–	Active
> 1	COc1cc([C@H]2c3c(cc(OC)c(O)c3OC)C[C@H](CO)[C@@H]2CO[C@@H]2O[C@H](CO)[C@@H](O)[C@H](O)[C@H]2O)cc(OC)c1O	Non-toxic	–	Active
